PubChem BioAssay AID270 (DTP/NCI, 2004)
“And” between values parts separate entries of the source, which are not always exact repeats. Equal values may be shown once. Records with an inconclusive call do not appear.

System: BDF1 mice, s.c. Lewis lung carcinoma, T/C %
Assay: NCI In Vivo Anticancer Drug Screen. Data for tumor model Lewis Lung Carcinoma (subcutaneous) in B6D2F1 (BDF1) mice
Method in brief: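 Readout: survival or tumor size, expressed as treated (T) over vehicle control (C). Transplantable tumor implanted in mice; compound given to the treated group.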

[1] = endpoint: median survival time, dose: 3.12 mg/kg/injection, schedule: Q01DX009 (ip), vehicle: Klucel (hydroxypropylcellulose) (HPC), higher = longer survival
[2] = endpoint: median survival time, dose: 6.25 mg/kg/injection, schedule: Q01DX009 (ip), vehicle: Klucel (hydroxypropylcellulose) (HPC), higher = longer survival

In the case of `COc1cc(NS(C)(=O)=O)ccc1Nc1c2ccccc2nc2ccccc12`, the T/C (endpoint: median survival time, dose: 0.13 mg/kg/injection, schedule: Q01DX009 (ip), vehicle: other, higher = longer survival) is reported as 117 % of control, the T/C (endpoint: median survival time, dose: 0.5 mg/kg/injection, schedule: Q01DX009 (ip), vehicle: other, higher = longer survival) is reported as 118 % of control and the T/C (endpoint: median survival time, dose: 0.78 mg/kg/injection, schedule: Q01DX009 (ip), vehicle: saline, higher = longer survival) is reported as 96 % of control. The T/C (endpoint: median survival time, dose: 1.25 mg/kg/injection, schedule: Q01DX011 (ip), vehicle: Klucel (hydroxypropylcellulose) (HPC), higher = longer survival) was 91 % of control, the T/C (endpoint: median survival time, dose: 1.56 mg/kg/injection, schedule: Q01DX009 (ip), vehicle: saline, higher = longer survival) was 100 % of control and the T/C (endpoint: median survival time, dose: 2.5 mg/kg/injection, schedule: Q01DX011 (ip), vehicle: Klucel (hydroxypropylcellulose) (HPC), higher = longer survival) was 96 % of control. For the same compound, the T/C [1] was 118 % of control, the T/C (endpoint: median survival time, dose: 3.13 mg/kg/injection, schedule: Q01DX009 (ip), vehicle: saline, higher = longer survival) was 103 % of control and 107 % of control and the T/C [2] was 115 % of control. For the same compound, the T/C (endpoint: median survival time, dose: 12.5 mg/kg/injection, schedule: Q01DX009 (ip), vehicle: Klucel (hydroxypropylcellulose) (HPC), higher = longer survival) was 214 % of control, the T/C (endpoint: median tumor weight (est.), dose: 1.25 mg/kg/injection, schedule: Q01DX011 (ip), vehicle: Klucel (hydroxypropylcellulose) (HPC), higher = larger tumour) was 88 % of control and the T/C (endpoint: median tumor weight (est.), dose: 2.5 mg/kg/injection, schedule: Q01DX011 (ip), vehicle: Klucel (hydroxypropylcellulose) (HPC), higher = larger tumour) was 110 % of control. The T/C (endpoint: median tumor weight (est.), dose: 5.0 mg/kg/injection, schedule: Q01DX011 (ip), vehicle: Klucel (hydroxypropylcellulose) (HPC), higher = larger tumour) was 504 % of control.

With `CCCCCCC(=O)O[C@H]1CC[C@H]2[C@@H]3CCC4=CC(=O)CC[C@]4(C)[C@H]3CC[C@]12C` the T/C (endpoint: mean tumor weight (est.), dose: 10.0 mg/kg/injection, schedule: Q01DX009 (ip), vehicle: water, higher = larger tumour) was 73 % of control, the T/C (endpoint: mean tumor weight (est.), dose: 20.0 mg/kg/injection, schedule: Q01DX009 (ip), vehicle: water, higher = larger tumour) was 111 % of control and the T/C (endpoint: mean tumor weight (est.), dose: 40.0 mg/kg/injection, schedule: Q01DX009 (ip), vehicle: water, higher = larger tumour) was 52 % of control. For the same compound, the T/C (endpoint: mean tumor weight (est.), dose: 80.0 mg/kg/injection, schedule: Q01DX009 (ip), vehicle: water, higher = larger tumour) was 93 % of control, the T/C (endpoint: median survival time, dose: 10.0 mg/kg/injection, schedule: Q01DX009 (ip), vehicle: water, higher = longer survival) was 115 % of control and the T/C (endpoint: median survival time, dose: 80.0 mg/kg/injection, schedule: Q01DX009 (ip), vehicle: water, higher = longer survival) was 101 % of control.

In the case of `Cc1ccc(NC(=O)N(CCCl)N=O)cc1C`, the T/C [1] is reported as 112 % of control and the T/C [2] is reported as 87 % of control.

`N#Cc1ccc(NC(=O)N(CCCl)N=O)cc1` was tested, and the T/C (endpoint: median tumor weight (est.), dose: 13.0 mg/kg/injection, schedule: Q01DX001 (ip), vehicle: Klucel (hydroxypropylcellulose) (HPC), higher = larger tumour) was 83 % of control, the T/C (endpoint: median tumor weight (est.), dose: 19.0 mg/kg/injection, schedule: Q01DX001 (ip), vehicle: Klucel (hydroxypropylcellulose) (HPC), higher = larger tumour) was 118 % of control and the T/C (endpoint: median tumor weight (est.), dose: 29.0 mg/kg/injection, schedule: Q01DX001 (ip), vehicle: Klucel (hydroxypropylcellulose) (HPC), higher = larger tumour) was 109 % of control. The T/C (endpoint: median tumor weight (est.), dose: 44.0 mg/kg/injection, schedule: Q01DX001 (ip), vehicle: Klucel (hydroxypropylcellulose) (HPC), higher = larger tumour) was 73 % of control and the T/C (endpoint: median tumor weight (est.), dose: 67.0 mg/kg/injection, schedule: Q01DX001 (ip), vehicle: Klucel (hydroxypropylcellulose) (HPC), higher = larger tumour) was 39 % of control.

With `CC(=O)OC1CCC(NC(=O)N(CCCl)N=O)CC1` (stereo not drawn) the T/C (endpoint: median survival time, dose: 24.0 mg/kg/injection, schedule: Q01DX001 (ip), vehicle: other, higher = longer survival) was 95 % of control.

For `C=C(C)[C@@H]1CC[C@]2(CO)CC[C@]3(C)[C@H](CC[C@@H]4[C@@]5(C)CC[C@H](O)C(C)(C)[C@@H]5CC[C@]43C)[C@@H]12`, the T/C (endpoint: mean tumor weight, dose: 100.0 mg/kg/injection, schedule: Q01DX011 (ip), vehicle: carboxymethylcellulose (CMC), higher = larger tumour) was 101 % of control and the T/C (endpoint: mean tumor weight, dose: 200.0 mg/kg/injection, schedule: Q01DX011 (ip), vehicle: carboxymethylcellulose (CMC), higher = larger tumour) was 68 % of control.

With `O=NN(CCF)C(=O)NC1CCS(=O)(=O)CC1` the T/C (endpoint: median survival time, dose: 9.0 mg/kg/injection, schedule: Q01DX001 (ip), vehicle: other, higher = longer survival) was 120 % of control, the T/C (endpoint: median survival time, dose: 14.0 mg/kg/injection, schedule: Q01DX001 (ip), vehicle: other, higher = longer survival) was 109 % of control and the T/C (endpoint: median survival time, dose: 21.0 mg/kg/injection, schedule: Q01DX001 (ip), vehicle: other, higher = longer survival) was 121 % of control. For the same compound, the T/C (endpoint: median survival time, dose: 32.0 mg/kg/injection, schedule: Q01DX001 (ip), vehicle: other, higher = longer survival) was 107 % of control, the T/C (endpoint: median tumor weight (est.), dose: 11.0 mg/kg/injection, schedule: Q01DX001 (ip), vehicle: other, higher = larger tumour) was 65 % of control and the T/C (endpoint: median tumor weight (est.), dose: 21.0 mg/kg/injection, schedule: Q01DX001 (ip), vehicle: other, higher = larger tumour) was 65 % of control. For the same compound, the T/C (endpoint: median tumor weight (est.), dose: 32.0 mg/kg/injection, schedule: Q01DX001 (ip), vehicle: other, higher = larger tumour) was 10 % of control.

In the case of `CCNC1=C(N2CC2)C(=O)C(NCC)=C(N2CC2)C1=O`, the T/C (endpoint: median survival time, dose: 0.37 mg/kg/injection, schedule: Q01DX009 (ip), vehicle: saline, higher = longer survival) is reported as 115 % of control and the T/C (endpoint: median survival time, dose: 0.75 mg/kg/injection, schedule: Q01DX009 (ip), vehicle: saline, higher = longer survival) is reported as 121 % of control.
